The results in this text go back to patent US20160046592A1, “PHARMACEUTICAL COMPOSITION FOR THE TREATMENT OF DIABETES” (Ajinomoto Co., Inc., priority 2013, published 2016).

Counter-ions that a name gives are not always drawn.

The experiment concerns the target T1, PPAR-α (Homo sapiens, UniProt Q07869).
T1 construct: expressed in transfected cells; host or cells: CV-1 (African green monkey kidney)
T1 sequence (Q07869 167-468): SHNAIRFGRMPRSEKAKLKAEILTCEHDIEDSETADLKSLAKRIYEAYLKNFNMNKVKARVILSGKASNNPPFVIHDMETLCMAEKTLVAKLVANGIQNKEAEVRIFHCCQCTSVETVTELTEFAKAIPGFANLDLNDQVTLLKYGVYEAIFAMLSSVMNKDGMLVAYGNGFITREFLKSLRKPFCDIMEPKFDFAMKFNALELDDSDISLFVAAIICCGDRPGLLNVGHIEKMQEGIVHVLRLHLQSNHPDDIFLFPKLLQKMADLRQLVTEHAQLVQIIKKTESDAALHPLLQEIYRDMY
In words: Measurement of PPAR-α activity (GAL4 luciferase reporter assay in CV-1 cells). In kind it is cell-based. Conditions: 100(A/B): A = maximum PPAR-α activity of test compound at 3, 10, 30 and 100 μM, B = activity of the compound of WO/2011/058154 at 100 μM, 18 to 20 hours, read-out: Relative fold induction (%) of PPAR α. Put shortly:
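CV-1 cells were co-transfected with a UAS×5-TK-Luc reporter and a hGR-GAL4-hPPARα (LBD 167-468aa) expression plasmid, then dosed with compound for 18 to 20 h at 37 °C, with Bright-Glo luciferase read-out. Relative fold induction (%) is the maximum activity at 3, 10, 30 or 100 μM divided by the activity of a WO/2011/058154 reference compound at 100 μM.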
On the technique in general: In a reporter assay the amount or activity of a reporter protein is the signal.

In the case of `CSc1cc(F)c(F)cc1-c1ccc(OCc2cccc(C(=O)N3C[C@H](N(C)C)C[C@H]3C(=O)O)c2)cc1` [Example 63, (2S,4R)-1-[3-[[4-(4,5-Difluoro-2-methylsulfanyl-phenyl)phenoxy]methyl]benzoyl]-4-(dimethylamino)pyrrolidine-2-carboxylic Acid Trifluoroacetate], the Emax came to 13%.
With `COC[C@@H]1CC[C@@H](C(=O)O)N1C(=O)c1cccc(COc2ccc(-c3cc(F)c(F)cc3SC)cc2)c1` [Example 62, (2S,5S)-1-[3-[[4-(4,5-Difluoro-2-methylsulfanyl-phenyl)phenoxy]methyl]benzoyl]-5-(methoxymethyl)pyrrolidine-2-carboxylic Acid] the figure was 14%.
